# Results taken from ChEMBL document CHEMBL3885861, “Open TG-GATES”.
# Organism: Rattus norvegicus
# Experiment: Open TG-GATES - Regimen: Single
# Assay type: toxicity, organism-based, Sprague-Dawley
# Design: regimen Single, gender Male, age 6 weeks
# Conditions: in vivo, po, 24 h, route gavage; for Bas / Eos / Hb / Ht / Lym / MCH / MCHC / MCV / Mono / Neu / Plat / RBC / Ret / WBC: tissue Blood; for KIDNEY_L / KIDNEY_R / KIDNEY_TOTAL: tissue Kidney; for LIVER: tissue Liver; for A/G / ALP / ALT / AST / BUN / CRE / Ca / Cl / DBIL / GLC / IP / K / Na / PL / RALB / TBIL / TC / TG / TP / gamma-GTP: tissue Plasma
structure (smiles),measurement,setting,value
COc1cc2c(c3oc(=O)c4c(c13)CCC4=O)[C@@H]1C=CO[C@@H]1O2 [AFLATOXIN],TERMINAL_BW,"0 mg/kg, dose level Control",227.2 g
same,Bas,"0 mg/kg, dose level Control",0%
same,Eos,"0 mg/kg, dose level Control",1%
same,Hb,"0 mg/kg, dose level Control",12.7 g/dL
same,Ht,"0 mg/kg, dose level Control",37.5%
same,Lym,"0 mg/kg, dose level Control",79%
same,MCH,"0 mg/kg, dose level Control",20.7 pg
same,MCHC,"0 mg/kg, dose level Control",33.9%
same,MCV,"0 mg/kg, dose level Control",60.9 fL
same,Mono,"0 mg/kg, dose level Control",2.8%
same,Neu,"0 mg/kg, dose level Control",16.2%
same,Plat,"0 mg/kg, dose level Control",118.1 x10_4/uL
same,RBC,"0 mg/kg, dose level Control",616 x10_4/ul
same,Ret,"0 mg/kg, dose level Control",8.7%
same,WBC,"0 mg/kg, dose level Control",76.8 x10_2/uL
same,KIDNEY_L,"0 mg/kg, dose level Control",1 g
same,KIDNEY_R,"0 mg/kg, dose level Control",1 g
same,KIDNEY_TOTAL,"0 mg/kg, dose level Control",2.1 g
same,LIVER,"0 mg/kg, dose level Control",10.9 g
same,A/G,"0 mg/kg, dose level Control",1
same,ALP,"0 mg/kg, dose level Control",1775.8 IU/L
same,ALT,"0 mg/kg, dose level Control",40 IU/L
same,AST,"0 mg/kg, dose level Control",72.2 IU/L
same,BUN,"0 mg/kg, dose level Control",16.5 mg/dL
same,CRE,"0 mg/kg, dose level Control",0.2 mg/dL
same,Ca,"0 mg/kg, dose level Control",10.8 mg/dL
same,Cl,"0 mg/kg, dose level Control",104.1 meq/L
same,DBIL,"0 mg/kg, dose level Control",0.002 mg/dL
same,GLC,"0 mg/kg, dose level Control",189.4 mg/dL
same,IP,"0 mg/kg, dose level Control",7 mg/dL
same,K,"0 mg/kg, dose level Control",4.5 meq/L
same,Na,"0 mg/kg, dose level Control",139.2 meq/L
same,PL,"0 mg/kg, dose level Control",153.4 mg/dL
same,RALB,"0 mg/kg, dose level Control",2.8 g/dL
same,TBIL,"0 mg/kg, dose level Control",0 mg/dL
same,TC,"0 mg/kg, dose level Control",76.2 mg/dL
same,TG,"0 mg/kg, dose level Control",141.9 mg/dL
same,TP,"0 mg/kg, dose level Control",5.7 g/dL
same,gamma-GTP,"0 mg/kg, dose level Control",0.8 IU/L
same,TERMINAL_BW,"1 mg/kg, dose level Low",220.4 g
same,Bas,"1 mg/kg, dose level Low",0%
same,Eos,"1 mg/kg, dose level Low",0.8%
same,Hb,"1 mg/kg, dose level Low",12.8 g/dL
same,Ht,"1 mg/kg, dose level Low",37.6%
same,Lym,"1 mg/kg, dose level Low",74.6%
same,MCH,"1 mg/kg, dose level Low",20.5 pg
same,MCHC,"1 mg/kg, dose level Low",34.2%
same,MCV,"1 mg/kg, dose level Low",60 fL
same,Mono,"1 mg/kg, dose level Low",4.8%
same,Neu,"1 mg/kg, dose level Low",19.2%
same,Plat,"1 mg/kg, dose level Low",127.7 x10_4/uL
same,RBC,"1 mg/kg, dose level Low",627.4 x10_4/ul
same,Ret,"1 mg/kg, dose level Low",8.8%
same,WBC,"1 mg/kg, dose level Low",97.6 x10_2/uL
same,KIDNEY_L,"1 mg/kg, dose level Low",1 g
same,KIDNEY_R,"1 mg/kg, dose level Low",1 g
same,KIDNEY_TOTAL,"1 mg/kg, dose level Low",2 g
same,LIVER,"1 mg/kg, dose level Low",10.2 g
same,A/G,"1 mg/kg, dose level Low",1
same,ALP,"1 mg/kg, dose level Low",1769.4 IU/L
same,ALT,"1 mg/kg, dose level Low",59.6 IU/L
same,AST,"1 mg/kg, dose level Low",97 IU/L
same,BUN,"1 mg/kg, dose level Low",15.7 mg/dL
same,CRE,"1 mg/kg, dose level Low",0.2 mg/dL
same,Ca,"1 mg/kg, dose level Low",10.7 mg/dL
same,Cl,"1 mg/kg, dose level Low",103.9 meq/L
same,DBIL,"1 mg/kg, dose level Low",0.002 mg/dL
same,GLC,"1 mg/kg, dose level Low",171.4 mg/dL
same,IP,"1 mg/kg, dose level Low",7.5 mg/dL
same,K,"1 mg/kg, dose level Low",4.4 meq/L
same,Na,"1 mg/kg, dose level Low",138.8 meq/L
same,PL,"1 mg/kg, dose level Low",150.2 mg/dL
same,RALB,"1 mg/kg, dose level Low",2.8 g/dL
same,TBIL,"1 mg/kg, dose level Low",0 mg/dL
same,TC,"1 mg/kg, dose level Low",84.4 mg/dL
same,TG,"1 mg/kg, dose level Low",93.8 mg/dL
same,TP,"1 mg/kg, dose level Low",5.7 g/dL
same,gamma-GTP,"1 mg/kg, dose level Low",1 IU/L
same,TERMINAL_BW,"3 mg/kg, dose level Middle",219.9 g
same,Bas,"3 mg/kg, dose level Middle",0%
same,Eos,"3 mg/kg, dose level Middle",0.4%
same,Hb,"3 mg/kg, dose level Middle",13.4 g/dL
same,Ht,"3 mg/kg, dose level Middle",39.5%
same,Lym,"3 mg/kg, dose level Middle",74.2%
same,MCH,"3 mg/kg, dose level Middle",20.1 pg
same,MCHC,"3 mg/kg, dose level Middle",33.8%
same,MCV,"3 mg/kg, dose level Middle",59.5 fL
same,Mono,"3 mg/kg, dose level Middle",5.2%
same,Neu,"3 mg/kg, dose level Middle",18.6%
same,Plat,"3 mg/kg, dose level Middle",114.1 x10_4/uL
same,RBC,"3 mg/kg, dose level Middle",663 x10_4/ul
same,Ret,"3 mg/kg, dose level Middle",8.5%
same,WBC,"3 mg/kg, dose level Middle",84.9 x10_2/uL
same,KIDNEY_L,"3 mg/kg, dose level Middle",0.9 g
same,KIDNEY_R,"3 mg/kg, dose level Middle",0.9 g
same,KIDNEY_TOTAL,"3 mg/kg, dose level Middle",1.9 g
same,LIVER,"3 mg/kg, dose level Middle",10.1 g
same,A/G,"3 mg/kg, dose level Middle",1
same,ALP,"3 mg/kg, dose level Middle",1736.6 IU/L
same,ALT,"3 mg/kg, dose level Middle",135 IU/L
same,AST,"3 mg/kg, dose level Middle",232 IU/L
same,BUN,"3 mg/kg, dose level Middle",15.8 mg/dL
same,CRE,"3 mg/kg, dose level Middle",0.2 mg/dL
same,Ca,"3 mg/kg, dose level Middle",10.7 mg/dL
same,Cl,"3 mg/kg, dose level Middle",105.1 meq/L
same,DBIL,"3 mg/kg, dose level Middle",0.012 mg/dL
same,GLC,"3 mg/kg, dose level Middle",167.8 mg/dL
same,IP,"3 mg/kg, dose level Middle",8.1 mg/dL
same,K,"3 mg/kg, dose level Middle",4.4 meq/L
same,Na,"3 mg/kg, dose level Middle",139.3 meq/L
same,PL,"3 mg/kg, dose level Middle",168 mg/dL
same,RALB,"3 mg/kg, dose level Middle",2.7 g/dL
same,TBIL,"3 mg/kg, dose level Middle",0.01 mg/dL
same,TC,"3 mg/kg, dose level Middle",84.4 mg/dL
same,TG,"3 mg/kg, dose level Middle",112.4 mg/dL
same,TP,"3 mg/kg, dose level Middle",5.5 g/dL
same,gamma-GTP,"3 mg/kg, dose level Middle",1.5 IU/L
same,TERMINAL_BW,"10 mg/kg, dose level High",214.9 g
same,Bas,"10 mg/kg, dose level High",0%
same,Eos,"10 mg/kg, dose level High",0.6%
same,Hb,"10 mg/kg, dose level High",14 g/dL
same,Ht,"10 mg/kg, dose level High",40.8%
same,Lym,"10 mg/kg, dose level High",47.8%
same,MCH,"10 mg/kg, dose level High",20.7 pg
same,MCHC,"10 mg/kg, dose level High",34.3%
same,MCV,"10 mg/kg, dose level High",60.5 fL
same,Mono,"10 mg/kg, dose level High",2.8%
same,Neu,"10 mg/kg, dose level High",47%
same,Plat,"10 mg/kg, dose level High",104.8 x10_4/uL
same,RBC,"10 mg/kg, dose level High",674.6 x10_4/ul
same,Ret,"10 mg/kg, dose level High",8.4%
same,WBC,"10 mg/kg, dose level High",101.9 x10_2/uL
same,KIDNEY_L,"10 mg/kg, dose level High",1 g
same,KIDNEY_R,"10 mg/kg, dose level High",1 g
same,KIDNEY_TOTAL,"10 mg/kg, dose level High",2 g
same,LIVER,"10 mg/kg, dose level High",9 g
same,A/G,"10 mg/kg, dose level High",1
same,ALP,"10 mg/kg, dose level High",2013.2 IU/L
same,ALT,"10 mg/kg, dose level High",292.6 IU/L
same,AST,"10 mg/kg, dose level High",630.8 IU/L
same,BUN,"10 mg/kg, dose level High",19.7 mg/dL
same,CRE,"10 mg/kg, dose level High",0.2 mg/dL
same,Ca,"10 mg/kg, dose level High",10.7 mg/dL
same,Cl,"10 mg/kg, dose level High",103.7 meq/L
same,DBIL,"10 mg/kg, dose level High",0.094 mg/dL
same,GLC,"10 mg/kg, dose level High",153.2 mg/dL
same,IP,"10 mg/kg, dose level High",9.1 mg/dL
same,K,"10 mg/kg, dose level High",4.1 meq/L
same,Na,"10 mg/kg, dose level High",138.9 meq/L
same,PL,"10 mg/kg, dose level High",158.2 mg/dL
same,RALB,"10 mg/kg, dose level High",2.8 g/dL
same,TBIL,"10 mg/kg, dose level High",0.1 mg/dL
same,TC,"10 mg/kg, dose level High",87.4 mg/dL
same,TG,"10 mg/kg, dose level High",32.9 mg/dL
same,TP,"10 mg/kg, dose level High",5.6 g/dL
same,gamma-GTP,"10 mg/kg, dose level High",2.9 IU/L
